Assay results as given in patent US20080051464A1, “Protein phosphatase inhibitors” (The Cleveland Clinic Foundation, priority 2006, published 2008).

Columns and labels:
[1] = tested on: melanoma MeI-7, colon cancer MC-26, breast cancer 4T1 and prostate cancer DU145; experiment: cyto-toxicity against four other cancer cell lines (MTT assay); type: cell-based; conditions: FIGS. 19B, C and D
Excerpt: (§1) L5, L6 and L6 analogs (Chembridge), mouse IFNγ ELISPOT Kit (R & D System) and antibody against pLck-pY394 or pERK1/2 (Cell Signaling) were purchased from commercial sources. Human Jurkat T cell line and murine B16 melanoma cell line (ATCC) and other cancer cell lines were maintained in […] culture medium supplemented with 10% fetal calf serum (FCS). The effects of chemical compounds on cancer cell growth in culture were quantified by MTT assays following our established procedures.

MKPs = experiment: induction of MKPs substrates in Jurkat cells (Western blotting); type: cell-based, human; conditions: for differential effects on MKP substrates (pERK1/2, p38, pJNK): L6 at 1-100 ng/ml
Protocol: FIG. 22 illustrates selective induction of MKPs substrates by L6 and analogs in Jurkat human leukemic cells. Jurkat cells were treated with the compounds for 30 min in culture prior to quantification of MKPs substrates by SDS-PAGE/Western blotting.

Jurkat cells = experiment: Jurkat cell apoptosis (Annexin V / 7-AAD, FACS); type: cell-based, human; conditions: 16 hrs (FIG. 23)
Protocol: FIG. 23 illustrates jurkat cells were treated with L6 and analogs in culture for 16 hrs. Cells were then stained for apoptotic marker Annexin V and cell death marker 7-AAD prior to FACS analysis.

B16 melanoma cells = experiment: B16 melanoma cell growth in culture (MTT assay); type: cell-based, mouse
Excerpt: as §1

prostate cancer DU145 = experiment: DU145 cell growth (MTT assay); type: cell-based; conditions: highest testing dose (5 μg/ml) (FIG. 19E)
Excerpt: as §1

[2] = tested on: HT-29 human colon cancer cells; experiment: cytotoxicity of 5FU against HT-29 cells with L6 or analogs (MTT assay); type: cell-based; conditions: 5FU 2 μm, 3 days, then 4 days culture (FIG. 24)
Protocol: FIG. 24 illustrates HT-29 cells were treated with L6 or the analogs in the absence or presence of 5FU (2 μm) for 3 days. After washing, the cells were cultured for 4 days prior to quantification of viable cells by MTT assays.

pERK1/2 in B16 cells = pERK1/2 in B16 cells (Western blotting); type: cell-based, mouse; conditions: 10 min (FIG. 20C)
Protocol: FIG. 20 illustrates L6 induces pERK1/2 in Jurkat and B16 cells. A and B, Western blotting membranes with samples and probed for the SHP-1 substrates were stripped and then re-probed with an antibody for pERK1/2. C, B16 cells were treated with L6 or L6a6 at […] for 10 min and subjected to SDS-PAGE/Western blotting to quantify pERK1/2.

Compound | killing dose relative to L6 and L6a6 [1] | MKP predominantly targeted (as indicated by effects on the substrates) (MKPs) | differential effects on MKP substrates (pERK1/2, p38, pJNK) (MKPs; 30 min (FIG. 22)) | Jurkat cell apoptosis (Jurkat cells) | dose that completely killed B16 cells (killing dose) (B16 melanoma cells; FIG. 19A) [µg/mL] | toxicity toward B16 cells in culture (B16 melanoma cells; comparable conditions (FIG. 19A)) | DU145 cell growth (prostate cancer DU145) | dose inducing pJNK and p-p38 (MKPs; 30 min (FIG. 22)) [ng/ml] | augmentation of 5FU cytotoxicity against HT-29 cells [2] | induction of pERK1/2 in B16 cells (pERK1/2 in B16 cells)
Cc1ccc(-n2sc3ccccc3c2=O)cc1 [L6a2] | 5-10 folds higher | targeted a p38-specific MKP | selectively induced p38 phosphorylation | apoptosis were induced | 2.5 | little or limited toxicity | failed to affect DU145 cell growth | – | – | –
Cc1cc(-n2sc(Cl)c(C)c2=O)ccc1Cl [L6a6] | – | mainly acted against MKP1 | induced pERK1/2 only at the high doses | apoptosis were induced | – | – | – | ≥ 1 | augmented | pERK1/2-inducing activity
